Data reported in patent US9714247B2, “Multiple kinase pathway inhibitors” (Mannkind Corporation, priority 2012, dated 2017).
Read-outs that look alike come from different tables or passages of the source.

Assays:
[1] = molecular target: BTK (Homo sapiens (Human), UniProt Q06187)
[2] = molecular target: Src (Homo sapiens (Human), UniProt P12931); conditions: read-out: Src IC50
[3] = test system: Ramos; experiment: CellTiter-Glo proliferation/viability assay; assay type: cell-based, human; conditions: read-out: Ramos EC50
[4] = molecular target: Lyn (Homo sapiens (Human), UniProt P07948); conditions: read-out: Lyn IC50
Chain of Lyn (P07948 whole entry): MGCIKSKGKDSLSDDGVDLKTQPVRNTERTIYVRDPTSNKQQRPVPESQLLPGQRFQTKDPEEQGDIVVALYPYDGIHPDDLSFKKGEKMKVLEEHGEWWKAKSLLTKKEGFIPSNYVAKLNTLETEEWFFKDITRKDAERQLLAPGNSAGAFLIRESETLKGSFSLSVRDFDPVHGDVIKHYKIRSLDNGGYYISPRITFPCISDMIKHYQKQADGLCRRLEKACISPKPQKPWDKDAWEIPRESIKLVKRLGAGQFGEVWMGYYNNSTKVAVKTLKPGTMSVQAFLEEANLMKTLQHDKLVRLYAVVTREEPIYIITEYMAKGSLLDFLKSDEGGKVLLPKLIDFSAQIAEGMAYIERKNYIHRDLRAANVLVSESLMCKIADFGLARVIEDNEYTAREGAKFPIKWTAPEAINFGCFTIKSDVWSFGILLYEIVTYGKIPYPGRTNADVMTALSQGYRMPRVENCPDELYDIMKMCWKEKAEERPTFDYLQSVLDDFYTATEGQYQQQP

[5] = test system: DoHH2; experiment: CellTiter-Glo proliferation/viability assay; assay type: cell-based, human; conditions: 48 hrs, read-out: DoHH2 EC50

Chain of Src (P12931 whole entry, looked up): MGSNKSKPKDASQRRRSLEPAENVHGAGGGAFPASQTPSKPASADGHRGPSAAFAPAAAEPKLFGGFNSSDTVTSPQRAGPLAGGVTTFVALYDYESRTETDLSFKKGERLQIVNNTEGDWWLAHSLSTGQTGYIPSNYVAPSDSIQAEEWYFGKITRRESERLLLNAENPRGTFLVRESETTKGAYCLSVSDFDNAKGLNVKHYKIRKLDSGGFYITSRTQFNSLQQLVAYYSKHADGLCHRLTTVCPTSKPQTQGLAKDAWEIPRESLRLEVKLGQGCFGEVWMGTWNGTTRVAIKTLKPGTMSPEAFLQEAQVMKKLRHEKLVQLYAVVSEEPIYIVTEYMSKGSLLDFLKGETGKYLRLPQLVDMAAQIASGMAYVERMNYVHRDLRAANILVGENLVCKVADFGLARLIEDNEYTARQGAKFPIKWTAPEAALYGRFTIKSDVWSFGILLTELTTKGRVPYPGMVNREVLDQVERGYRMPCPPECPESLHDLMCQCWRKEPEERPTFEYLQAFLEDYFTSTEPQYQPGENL
Chain of BTK (Q06187 whole entry): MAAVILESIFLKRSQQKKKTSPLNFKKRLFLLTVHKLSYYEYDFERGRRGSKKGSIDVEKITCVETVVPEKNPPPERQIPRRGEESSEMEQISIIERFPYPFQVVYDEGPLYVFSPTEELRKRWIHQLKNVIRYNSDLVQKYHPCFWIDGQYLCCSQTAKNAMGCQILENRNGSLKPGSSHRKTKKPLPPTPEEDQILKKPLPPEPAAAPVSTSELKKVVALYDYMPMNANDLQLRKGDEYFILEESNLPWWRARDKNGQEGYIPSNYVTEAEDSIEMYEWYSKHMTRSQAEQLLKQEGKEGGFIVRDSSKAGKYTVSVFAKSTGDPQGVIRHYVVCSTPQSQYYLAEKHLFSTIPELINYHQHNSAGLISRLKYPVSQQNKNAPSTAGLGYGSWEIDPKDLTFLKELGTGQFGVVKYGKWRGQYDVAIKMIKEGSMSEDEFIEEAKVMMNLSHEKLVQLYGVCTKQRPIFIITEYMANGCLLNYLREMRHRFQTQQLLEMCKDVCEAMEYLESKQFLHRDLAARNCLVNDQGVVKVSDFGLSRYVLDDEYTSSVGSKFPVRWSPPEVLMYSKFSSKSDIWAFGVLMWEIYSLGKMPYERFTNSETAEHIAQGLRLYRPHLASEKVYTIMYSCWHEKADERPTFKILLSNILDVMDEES

IC50 ([1]; read-out: BTK IC50) [nM] | IC50 [2] [nM] | EC50 ([3]; 48 hrs) [nM] | IC50 [4] [nM] | IC50 [1] [nM] | EC50 ([3]; Homo sapiens, Ramos, 48 h) [nM] | EC50 ([3]; Homo sapiens, Ramos, 48 hrs) [nM] | SMILES | EC50 [5] [nM] | EC50 ([5]; Homo sapiens, DOHH-2) [nM]
< 100 | < 100 | 1000 to 10000 | < 100 |  |  |  | CCN(CC)CCOc1ccc(Nc2cc3c(cn2)cc(-c2c(F)cccc2F)c(=O)n3C2CCOC2)nc1 (single isomer, unassigned) [Compound 144, (R or S)-7-((5-(2-(diethylamino)ethoxy)pyridin-2-yl)amino)-3-(2,6-difluorophenyl)-1-(tetrahydrofuran-3-yl)-1,6-naphthyridin-2(1H)-one] | < 1000 | 
< 100 | < 100 | 1000 to 10000 | < 100 |  |  |  | CCN(CC)CCOc1ccc(Nc2cc3c(cn2)cc(-c2c(Cl)cccc2Cl)c(=O)n3C2CCOC2)nc1 (single isomer, unassigned) [Compound 146, (R or S)-3-(2,6-dichlorophenyl)-7-((5-(2-(diethylamino)ethoxy)pyridin-2-yl)amino)-1-(tetrahydrofuran-3-yl)-1,6-naphthyridin-2(1H)-one] | < 1000 | 
< 100 | < 100 | > 10000 | < 100 |  |  |  | O=c1c(-c2c(Cl)cccc2Cl)cc2cnc(Nc3ccc(F)cn3)cc2n1C1CCOC1 (single isomer, unassigned) [Compound 148, (R or S)-3-(2,6-dichlorophenyl)-7-((5-fluoropyridin-2-yl)amino)-1-(tetrahydrofuran-3-yl)-1,6-naphthyridin-2(1H)-one] | < 1000 | 
 | < 100 |  | > 5000 | 100 to 1000 | < 1000 |  | CCn1c(=O)c(Br)cc2cnc(Nc3ccc(C)cn3)cc21 [Compound 88] |  | < 1000
> 5000 |  |  |  |  |  | > 10000 | CCn1c(=O)c(-c2ccccc2)cc2cnc(NC3=NCCO3)cc21 [Compound 90] |  | > 10000
> 5000 |  |  |  |  |  | > 10000 | CCn1c(=O)c(-c2ccccc2)cc2cnc(NC3=NCCS3)cc21 [Compound 91] |  | > 10000
 | < 100 |  | < 100 | 100 to 1000 | 1000 to 10000 |  | CCN(CC)CCOc1ccc(Nc2cc3c(cn2)cc(-c2c(F)ccc(Cl)c2F)c(=O)n3CC)nc1 [Compound 97, 3-(3-chloro-2,6-difluorophenyl)-7-((5-(2-(diethylamino)ethoxy)pyridin-2-yl)amino)-1-ethyl-1,6-naphthyridin-2(1H)-one] |  | < 1000
< 100 | < 100 |  | < 100 |  |  | > 10000 | CCN(CC)CCOc1ccc(Nc2cc3c(cn2)cc(-c2c(Cl)cccc2OC)c(=O)n3CC)nc1 [Compound 108, 3-(2-chloro-6-methoxyphenyl)-7-((5-(2-(diethylamino)ethoxy)pyridin-2-yl)amino)-1-ethyl-1,6-naphthyridin-2(1H)-one] |  | < 1000
 | > 5000 |  | > 5000 | 1000 to 5000 | > 10000 |  | CCn1c(=O)c(-c2ccccc2)cc2cnc(Nc3cccnn3)cc21 [Compound 112, 1-ethyl-3-phenyl-7-(pyridazin-3-ylamino)-1,6-naphthyridin-2(1H)-one] |  | > 10000

The remaining lines, values behind:

SMILES | IC50 ([1]; read-out: BTK IC50) [nM] | IC50 [2] [nM] | EC50 ([3]; 48 hrs) [nM] | IC50 [4] [nM] | IC50 [1] [nM] | EC50 ([3]; Homo sapiens, Ramos, 48 h) [nM] | EC50 ([3]; Homo sapiens, Ramos, 48 hrs) [nM] | EC50 [5] [nM] | EC50 ([5]; Homo sapiens, DOHH-2) [nM]
CCn1c(=O)c(-c2ccccc2)cc2cnc(Nc3ncc(C)o3)cc21 [Compound 9, 1-Ethyl-7-(5-methyl-oxazol-2-ylamino)-3-phenyl-1H-[1,6]naphthyridin-2-one] |  | > 5000 |  | > 5000 | 1000 to 5000 | > 10000 |  |  | 1000 to 10000
CCn1c(=O)c(-c2ccsc2)cc2cnc(Nc3ccc(C)cn3)cc21 [Compound 10, 1-Ethyl-7-(5-methyl-pyridin-2-ylamino)-3-thiophen-3-yl-1H-[1,6]naphthyridin-2-one] |  | > 5000 |  | > 5000 | 1000 to 5000 |  | > 10000 |  | > 10000
CCn1c(=O)c(-c2cccs2)cc2cnc(Nc3ccc(C)cn3)cc21 [Compound 11, 1-Ethyl-7-(5-methyl-pyridin-2-ylamino)-3-thiophen-2-yl-1H-[1,6]naphthyridin-2-one] |  | > 5000 |  | > 5000 | 100 to 1000 |  | > 10000 |  | > 10000
CCn1c(=O)c(C2CCCCC2)cc2cnc(Nc3ccc(C)cn3)cc21 [Compound 12, 3-Cyclohexyl-1-ethyl-7-(5-methyl-pyridin-2-ylamino)-1H-[1,6]naphthyridin-2-one] | > 5000 | > 5000 |  | > 5000 |  |  | > 10000 |  | > 10000
CCn1c(=O)c(C(C)C)cc2cnc(Nc3ccc(C)cn3)cc21 [Compound 13, 1-Ethyl-3-isopropyl-7-(5-methyl-pyridin-2-ylamino)-1H-[1,6]naphthyridin-2-one] |  | > 5000 |  | > 5000 | 1000 to 5000 | 1000 to 10000 |  |  | 1000 to 10000
CCn1c(=O)c(CC(C)C)cc2cnc(Nc3ccc(C)cn3)cc21 [Compound 20, 1-Ethyl-3-isobutyl-7-(5-methyl-pyridin-2-ylamino)-1H-[1,6]naphth yridin-2-one] |  | > 5000 |  | > 5000 | 100 to 1000 | > 10000 |  |  | > 10000
CCn1c(=O)c(-c2ccc(F)cc2)cc2cnc(Nc3ccc(C)cn3)cc21 [Compound 26] | > 5000 | > 5000 |  | > 5000 |  |  | > 10000 |  | > 10000
CCn1c(=O)c(-c2cccc(F)c2)cc2cnc(Nc3ccc(C)cn3)cc21 [Compound 29, 1-ethyl-3-(3-fluorophenyl)-7-(5-methylpyridin-2-ylamino)-1,6-naphthyridin-2(1H)-one] | > 5000 | > 5000 |  | > 5000 |  |  | > 10000 |  | > 10000
CCN(CC)CCOc1ccc(Nc2cc3c(cn2)cc(C(C)C)c(=O)n3C2CC2)nc1 [Compound 36, 1-Cyclopropyl-7-[5-(2-diethylamino-ethoxy)-pyridin-2-ylamino]-3-isopropyl-1H-[1,6]naphthyridin-2-one] |  |  |  |  |  | > 10000 |  |  | 1000 to 10000
CCOC(=O)/C=C/c1cc2cnc(Nc3ccc(C)cn3)cc2n(CC)c1=O [Compound 38] | > 5000 | > 5000 |  | > 5000 |  |  | > 10000 |  | > 10000
CCn1c(=O)c(-c2c(Cl)cccc2Cl)cc2cnc(Nc3ccc(F)cn3)cc21 [Compound 76, 3-(2,6-dichlorophenyl)-1-ethyl-7-((5-fluoropyridin-2-yl)amino)-1,6-naphthyridin-2(1H)-one] |  | < 100 |  | < 100 | 100 to 1000 | > 10000 |  |  | < 1000
O=c1c(-c2c(F)cccc2F)cc2cnc(Nc3ccc(F)cn3)cc2n1C1CCOCC1 [Compound 80, 3-(2,6-difluorophenyl)-7-((5-fluoropyridin-2-yl)amino)-1-(tetrahydro-2H-pyran-4-yl)-1,6-naphthyridin-2(1H)-one] |  | > 5000 |  | < 100 |  | > 10000 |  |  | < 1000
O=c1c(-c2c(F)cccc2F)cc2cnc(Nc3ccc(F)cn3)cc2n1-c1ccccc1 [Compound 81, 3-(2,6-difluorophenyl)-7-((5-fluoropyridin-2-yl)amino)-1-phenyl-1,6-naphthyridin-2(1H)-one] |  | < 100 |  | < 100 |  | > 10000 |  |  | 1000 to 10000
CCN(CC)CCOc1ccc(Nc2cc3c(cn2)cc(-c2ccccc2)c(=O)n3-c2ccncc2)nc1 [Compound 82, 7-[5-(2-Diethylamino-ethoxy)-pyridin-2-ylamino]-3-phenyl-1-pyridin-4-yl-1H-[1,6]naphthyridin-2-one] |  | < 100 |  | < 100 | 100 to 1000 |  | > 10000 |  | < 1000
CCN(CC)CCOc1ccc(Nc2cc3c(cn2)cc(-c2ccccc2)c(=O)n3CC)cc1 [Compound 86] |  | 1000 |  | < 100 |  | > 10000 |  |  | 1000 to 10000
CCn1c(=O)ccc2cnc(Nc3ccc(C)cn3)cc21 [Compound 87] |  | > 5000 |  | > 5000 | 1000 to 5000 | 1000 to 10000 |  |  | 1000 to 10000
CCn1c(=O)c(-c2c(F)cccc2OC)cc2cnc(Nc3ccc(N(C)C4CCN(C)CC4)cn3)cc21 [Compound 118, 1-ethyl-3-(2-fluoro-6-methoxyphenyl)-7-((5-(methyl(1-methylpiperidin-4-yl)amino)pyridin-2-yl)amino)-1,6-naphthyridin-2(1H)-one] | < 100 | < 100 |  | < 100 |  | 1000 to 10000 |  |  | < 1000
CCn1c(=O)c(-c2cc(OC)ccc2F)cc2cnc(Nc3ccc(N(C)C4CCN(C)CC4)cn3)cc21 [Compound 119, 1-ethyl-3-(2-fluoro-5-methoxyphenyl)-7-((5-(methyl(1-methylpiperidin-4-yl)amino)pyridin-2-yl)amino)-1,6-naphthyridin-2(1H)-one] |  |  |  |  | 100 to 1000 |  | 1000 to 10000 |  | < 1000
CCn1c(=O)c(-c2c(Cl)cccc2Cl)cc2cnc(Nc3ccc(N(C)C4CCN(C)CC4)cn3)cc21 [Compound 121, 3-(2,6-dichlorophenyl)-1-ethyl-7-((5-(methyl(1-methylpiperidin-4-yl)amino)pyridin-2-yl)amino)-1,6-naphthyridin-2(1H)-one] | < 100 | < 100 |  | < 100 |  | 1000 to 10000 |  |  | < 1000
CCn1c(=O)c(-c2c(O)cccc2Cl)cc2cnc(Nc3ccc(N(C)C4CCN(C)CC4)cn3)cc21 [Compound 122, 3-(2-chloro-6-hydroxyphenyl)-1-ethyl-7-((5-(methyl(1-methylpiperidin-4-yl)amino)pyridin-2-yl)amino)-1,6-naphthyridin-2(1H)-one] | < 100 | < 100 |  | < 100 |  |  | 1000 to 10000 |  | < 1000
